# Assay results from patent publication US12617795B2, “Substituted 6,7-dihydro-5H-pyrrolo[3,4-d]pyrimidines, 5,7-dihydrofuro[3,4-d]pyrimidines, and pyrido[2,3-d]pyrimidines as KCC2 modulators” (Astrazeneca AB, priority 2020, dated 2026).
# pEC50: −log10 of the molar value.
# Molecular target: T1, KCC2 (Homo sapiens, UniProt Q9H2X9)
# T1 construct: expressed in transfected cells; host or cells: HEK293 cells electroporated (Maxcyte STX) with the pcDNA3.1 KCC2 plasmid
# T1 sequence (Q9H2X9 1-1139): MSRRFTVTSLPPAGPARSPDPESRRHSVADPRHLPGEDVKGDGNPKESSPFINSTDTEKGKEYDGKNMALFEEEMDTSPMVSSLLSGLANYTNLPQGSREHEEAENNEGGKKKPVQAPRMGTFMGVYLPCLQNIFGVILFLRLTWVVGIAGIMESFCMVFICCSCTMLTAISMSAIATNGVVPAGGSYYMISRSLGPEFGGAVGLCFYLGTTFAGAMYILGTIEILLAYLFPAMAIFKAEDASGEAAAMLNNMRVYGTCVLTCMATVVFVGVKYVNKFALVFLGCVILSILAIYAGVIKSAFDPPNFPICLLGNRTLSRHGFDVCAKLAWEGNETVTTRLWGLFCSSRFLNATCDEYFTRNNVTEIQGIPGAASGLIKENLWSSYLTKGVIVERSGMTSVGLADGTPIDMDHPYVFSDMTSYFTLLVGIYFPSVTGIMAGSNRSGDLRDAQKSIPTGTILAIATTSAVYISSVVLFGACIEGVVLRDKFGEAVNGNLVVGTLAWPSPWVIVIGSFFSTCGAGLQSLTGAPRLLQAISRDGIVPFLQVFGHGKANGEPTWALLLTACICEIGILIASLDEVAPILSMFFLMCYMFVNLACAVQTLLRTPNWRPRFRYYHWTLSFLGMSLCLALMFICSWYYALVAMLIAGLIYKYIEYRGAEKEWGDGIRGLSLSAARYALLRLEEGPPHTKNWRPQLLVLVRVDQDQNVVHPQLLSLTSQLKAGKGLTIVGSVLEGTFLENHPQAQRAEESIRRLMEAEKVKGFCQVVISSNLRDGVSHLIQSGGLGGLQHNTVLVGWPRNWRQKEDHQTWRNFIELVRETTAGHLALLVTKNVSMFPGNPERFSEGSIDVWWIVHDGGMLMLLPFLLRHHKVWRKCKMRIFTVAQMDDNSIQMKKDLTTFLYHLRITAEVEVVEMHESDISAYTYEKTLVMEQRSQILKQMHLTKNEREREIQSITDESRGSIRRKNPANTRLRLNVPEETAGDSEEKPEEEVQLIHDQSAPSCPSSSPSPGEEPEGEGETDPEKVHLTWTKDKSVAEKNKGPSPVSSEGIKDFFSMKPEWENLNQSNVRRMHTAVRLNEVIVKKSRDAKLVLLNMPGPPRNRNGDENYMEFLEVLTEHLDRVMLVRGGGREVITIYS
# Test: KCC2 thallium transport FLIPR-based assay (Tl+ influx in HEK293 cells expressing KCC2)
# Assay type: cell-based
# Settings: 90 min compound incubation at RT, thallium flux at 120 s used to determine EC50
# How it was run: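 Transient electroporation of codon-optimised human KCC2 into HEK293 cells, plated and cultured 48 h before dye loading (1 h, RT). Compounds run as a 12-point 1:2 series from 100 μM top, 90 min RT in buffer containing bumetanide; Tl+ flux read by FLIPR after stimulus addition, 1 s intervals over 120 s, with the 120 s signal used for EC50.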
row,SMILES,pEC50
1,"CC(C)N1Cc2nc(N3CCO[C@H](C)C3)nc(Nc3ccc(C4CCCCC4)cc3)c2C1 [Example 110, (R)—N-(4-cyclohexylphenyl)-6-isopropyl-2-(2-methylmorpholino)-6,7-dihydro-5H-pyrrolo[3,4-d]pyrimidin-4-amine]",5.14
2,"CN(C)C(=O)CN1Cc2nc(C3=CCOCC3)nc(Nc3ccc(C4CCCCC4)cc3)c2C1 [Example 111, 2-{4-[(4-cyclohexylphenyl)amino]-2-(3,6-dihydro-2H-pyran-4-yl)-5,7-dihydro-6H-pyrrolo[3,4-d]pyrimidin-6-yl}-N,N-dimethylacetamide]",5.27
3,"CN1CCC(N2Cc3nc(N4CCOC(C5CC5)C4)nc(Nc4ccc(C5CCCCC5)cc4)c3C2)CC1 (centres unmarked) [Example 112, N-(4-cyclohexylphenyl)-2-(2-cyclopropylmorpholino)-6-(1-methylpiperidin-4-yl)-6,7-dihydro-5H-pyrrolo[3,4-d]pyrimidin-4-amine]",5.45
4,"CC(C)N1Cc2c(Nc3ccc(-c4cccs4)cc3)nc(N3CCOCC3)nc2C1=O [Example 113, 2-(morpholin-4-yl)-6-(propan-2-yl)-4-{[4-(thiophen-2-yl)phenyl]amino}-5,6-dihydro-7H-pyrrolo[3,4-d]pyrimidin-7-one]",5.32
5,"CC(C)N1Cc2c(Nc3ccc(-c4ccsc4)cc3)nc(N3CCOCC3)nc2C1=O [Example 114, 2-(morpholin-4-yl)-6-(propan-2-yl)-4-{[4-(thiophen-3-yl)phenyl]amino}-5,6-dihydro-7H-pyrrolo[3,4-d]pyrimidin-7-one]",5.14
